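Grown in 96-well plates, cells were treated for 48 hours with each compound at five concentrations. Insufficient inhibition: endpoint recorded as highest concentration tested. TGI marks complete inhibition of growth.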
Tests used:
Experiment in all cases: NCI-60 cell line screen, 48 h
MALME-3M melanoma = test system: MALME-3M melanoma
OVCAR-5 ovarian = test system: OVCAR-5 ovarian
HCC-2998 colon = test system: HCC-2998 colon
NCI-H460 lung = test system: NCI-H460 lung
DMS 114 small cell lung = test system: DMS 114 small cell lung
OVCAR-3 ovarian = test system: OVCAR-3 ovarian
NCI-H226 lung = test system: NCI-H226 lung
MOLT-4 leukemia = test system: MOLT-4 leukemia
HT29 colon = test system: HT29 colon
SF-539 CNS = test system: SF-539 CNS
HOP-62 NSCLC = test system: HOP-62 NSCLC
A498 renal = test system: A498 renal
SK-MEL-2 melanoma = test system: SK-MEL-2 melanoma
HOP-92 NSCLC = test system: HOP-92 NSCLC
LXFL 529 NSCLC = test system: LXFL 529 NSCLC
LOX IMVI melanoma = test system: LOX IMVI melanoma
SNB-78 CNS = test system: SNB-78 CNS
U251 CNS = test system: U251 CNS
786-0 renal = test system: 786-0 renal
HOP-18 NSCLC = test system: HOP-18 NSCLC
KM12 colon = test system: KM12 colon
K-562 leukemia = test system: K-562 leukemia
A549 NSCLC = test system: A549 NSCLC
ACHN renal = test system: ACHN renal
NCI-H23 lung = test system: NCI-H23 lung
CCRF-CEM leukemia = test system: CCRF-CEM leukemia
SF-268 CNS = test system: SF-268 CNS
UACC-257 melanoma = test system: UACC-257 melanoma
HCT-15 colon = test system: HCT-15 colon
OVCAR-4 ovarian = test system: OVCAR-4 ovarian
UO-31 renal = test system: UO-31 renal
DMS 273 small cell lung = test system: DMS 273 small cell lung
RPMI-8226 leukemia = test system: RPMI-8226 leukemia
RXF 393 renal = test system: RXF 393 renal
SK-MEL-28 melanoma = test system: SK-MEL-28 melanoma
SNB-75 CNS = test system: SNB-75 CNS
SN12C renal = test system: SN12C renal
HL-60(TB) leukemia = test system: HL-60(TB) leukemia
SW-620 colon = test system: SW-620 colon
M19-MEL melanoma = test system: M19-MEL melanoma
UACC-62 melanoma = test system: UACC-62 melanoma
CAKI-1 renal = test system: CAKI-1 renal
KM20L2 colon = test system: KM20L2 colon
COLO 205 colon = test system: COLO 205 colon
SF-295 CNS = test system: SF-295 CNS
M14 melanoma = test system: M14 melanoma
SK-OV-3 ovarian = test system: SK-OV-3 ovarian
SK-MEL-5 melanoma = test system: SK-MEL-5 melanoma
RXF-631 renal = test system: RXF-631 renal
XF 498 CNS = test system: XF 498 CNS
IGROV1 ovarian = test system: IGROV1 ovarian
DLD-1 colon = test system: DLD-1 colon
OVCAR-8 ovarian = test system: OVCAR-8 ovarian
HCT-116 colon = test system: HCT-116 colon
TK-10 renal = test system: TK-10 renal
EKVX NSCLC = test system: EKVX NSCLC
SR leukemia = test system: SR leukemia
NCI-H522 lung = test system: NCI-H522 lung
SNB-19 CNS = test system: SNB-19 CNS

CCOC(=O)NC1C2CC(=O)C(O2)C1OCc1ccccc1 (centres undefined)
TGI (MALME-3M melanoma): > 100 µM
TGI (OVCAR-5 ovarian): > 100 µM
TGI (HCC-2998 colon): > 100 µM
TGI (NCI-H460 lung): > 100 µM
TGI (DMS 114 small cell lung): > 100 µM
TGI (OVCAR-3 ovarian): > 100 µM
TGI (NCI-H226 lung): > 100 µM
TGI (MOLT-4 leukemia): > 100 µM
TGI (HT29 colon): > 100 µM
TGI (SF-539 CNS): > 100 µM
TGI (HOP-62 NSCLC): > 100 µM
TGI (A498 renal): > 100 µM
TGI (SK-MEL-2 melanoma): > 100 µM
TGI (HOP-92 NSCLC): > 100 µM
TGI (LXFL 529 NSCLC): > 100 µM
TGI (LOX IMVI melanoma): > 100 µM
TGI (SNB-78 CNS): > 100 µM
TGI (U251 CNS): > 100 µM
TGI (786-0 renal): > 100 µM
TGI (HOP-18 NSCLC): > 100 µM
TGI (KM12 colon): > 100 µM
TGI (K-562 leukemia): > 100 µM
TGI (A549 NSCLC): > 100 µM
TGI (ACHN renal): > 100 µM
TGI (NCI-H23 lung): > 100 µM
TGI (CCRF-CEM leukemia): > 100 µM
TGI (SF-268 CNS): > 100 µM
TGI (UACC-257 melanoma): > 100 µM
TGI (HCT-15 colon): > 100 µM
TGI (OVCAR-4 ovarian): > 100 µM
TGI (UO-31 renal): > 100 µM
TGI (DMS 273 small cell lung): > 100 µM
TGI (RPMI-8226 leukemia): > 100 µM
TGI (RXF 393 renal): > 100 µM
TGI (SK-MEL-28 melanoma): > 100 µM
TGI (SNB-75 CNS): > 100 µM
TGI (SN12C renal): > 100 µM
TGI (HL-60(TB) leukemia): > 100 µM
TGI (SW-620 colon): > 100 µM
TGI (M19-MEL melanoma): > 100 µM
TGI (UACC-62 melanoma): > 100 µM
TGI (CAKI-1 renal): > 100 µM
TGI (KM20L2 colon): > 100 µM
TGI (COLO 205 colon): > 100 µM
TGI (SF-295 CNS): > 100 µM
TGI (M14 melanoma): > 100 µM
TGI (SK-OV-3 ovarian): > 100 µM
TGI (SK-MEL-5 melanoma): > 100 µM
TGI (RXF-631 renal): > 100 µM
TGI (XF 498 CNS): > 100 µM
TGI (IGROV1 ovarian): > 100 µM
TGI (DLD-1 colon): > 100 µM

CC(=O)N1CCc2[nH]c3ccccc3c2CC1
TGI (MALME-3M melanoma): > 100 µM
TGI (OVCAR-5 ovarian): > 100 µM
TGI (HCC-2998 colon): > 100 µM
TGI (NCI-H460 lung): > 100 µM
TGI (DMS 114 small cell lung): > 100 µM
TGI (OVCAR-3 ovarian): > 100 µM
TGI (OVCAR-8 ovarian): > 100 µM
TGI (MOLT-4 leukemia): > 100 µM
TGI (HT29 colon): > 100 µM
TGI (HCT-116 colon): > 100 µM
TGI (SF-539 CNS): > 100 µM
TGI (HOP-62 NSCLC): > 100 µM
TGI (A498 renal): > 100 µM
TGI (SK-MEL-2 melanoma): > 100 µM
TGI (HOP-92 NSCLC): > 100 µM
TGI (LXFL 529 NSCLC): > 100 µM
TGI (LOX IMVI melanoma): > 100 µM
TGI (SNB-78 CNS): > 100 µM
TGI (U251 CNS): > 100 µM
TGI (786-0 renal): > 100 µM
TGI (HOP-18 NSCLC): > 100 µM
TGI (KM12 colon): > 100 µM
TGI (K-562 leukemia): > 100 µM
TGI (A549 NSCLC): > 100 µM
TGI (ACHN renal): > 100 µM
TGI (NCI-H23 lung): > 100 µM
TGI (CCRF-CEM leukemia): > 100 µM
TGI (UACC-257 melanoma): > 100 µM
TGI (HCT-15 colon): > 100 µM
TGI (OVCAR-4 ovarian): > 100 µM
TGI (DMS 273 small cell lung): > 100 µM
TGI (RPMI-8226 leukemia): > 100 µM
TGI (SK-MEL-28 melanoma): > 100 µM
TGI (SNB-75 CNS): 98.9 µM
TGI (HL-60(TB) leukemia): > 100 µM
TGI (TK-10 renal): > 100 µM
TGI (SW-620 colon): > 100 µM
TGI (M19-MEL melanoma): > 100 µM
TGI (UACC-62 melanoma): > 100 µM
TGI (CAKI-1 renal): > 100 µM
TGI (KM20L2 colon): > 100 µM
TGI (COLO 205 colon): > 100 µM
TGI (SF-295 CNS): > 100 µM
TGI (M14 melanoma): > 100 µM
TGI (SK-OV-3 ovarian): > 100 µM
TGI (EKVX NSCLC): > 100 µM
TGI (SK-MEL-5 melanoma): > 100 µM
TGI (RXF-631 renal): > 100 µM
TGI (XF 498 CNS): > 100 µM
TGI (IGROV1 ovarian): > 100 µM
TGI (DLD-1 colon): > 100 µM

COC(=O)C(CC(=O)c1ccccc1)c1ccccc1NC(C)=O (centres undefined)
TGI (MALME-3M melanoma): > 100 µM
TGI (OVCAR-5 ovarian): > 100 µM
TGI (HCC-2998 colon): > 100 µM
TGI (NCI-H460 lung): > 100 µM
TGI (DMS 114 small cell lung): > 100 µM
TGI (OVCAR-3 ovarian): > 100 µM
TGI (OVCAR-8 ovarian): > 100 µM
TGI (NCI-H226 lung): > 100 µM
TGI (MOLT-4 leukemia): > 100 µM
TGI (HT29 colon): > 100 µM
TGI (HCT-116 colon): > 100 µM
TGI (SF-539 CNS): > 100 µM
TGI (HOP-62 NSCLC): > 100 µM
TGI (A498 renal): > 100 µM
TGI (SR leukemia): > 100 µM
TGI (HOP-92 NSCLC): > 100 µM
TGI (LXFL 529 NSCLC): > 100 µM
TGI (NCI-H522 lung): > 100 µM
TGI (LOX IMVI melanoma): > 100 µM
TGI (SNB-78 CNS): > 100 µM
TGI (U251 CNS): > 100 µM
TGI (786-0 renal): > 100 µM
TGI (HOP-18 NSCLC): > 100 µM
TGI (KM12 colon): > 100 µM
TGI (K-562 leukemia): > 100 µM
TGI (A549 NSCLC): > 100 µM
TGI (ACHN renal): > 100 µM
TGI (NCI-H23 lung): > 100 µM
TGI (CCRF-CEM leukemia): > 100 µM
TGI (SF-268 CNS): > 100 µM
TGI (UACC-257 melanoma): > 100 µM
TGI (HCT-15 colon): > 100 µM
TGI (OVCAR-4 ovarian): > 100 µM
TGI (UO-31 renal): > 100 µM
TGI (RPMI-8226 leukemia): > 100 µM
TGI (SK-MEL-28 melanoma): > 100 µM
TGI (SNB-75 CNS): > 100 µM
TGI (SN12C renal): > 100 µM
TGI (HL-60(TB) leukemia): > 100 µM
TGI (TK-10 renal): > 100 µM
TGI (SW-620 colon): > 100 µM
TGI (M19-MEL melanoma): > 100 µM
TGI (SNB-19 CNS): > 100 µM
TGI (UACC-62 melanoma): > 100 µM
TGI (CAKI-1 renal): > 100 µM
TGI (KM20L2 colon): > 100 µM
TGI (COLO 205 colon): > 100 µM
TGI (SF-295 CNS): > 100 µM
TGI (M14 melanoma): > 100 µM
TGI (SK-OV-3 ovarian): > 100 µM
TGI (EKVX NSCLC): > 100 µM
TGI (SK-MEL-5 melanoma): > 100 µM
TGI (RXF-631 renal): > 100 µM
TGI (XF 498 CNS): > 100 µM
TGI (IGROV1 ovarian): > 100 µM
TGI (DLD-1 colon): > 100 µM

From PubChem BioAssay (NCI)
